Assay [1] relates to carrageenin-induced paw edema. Briefly: Antiinflammatory activity by the carrageenin-induced hind paw edema. In kind it is in vivo, mice (Std:ddY, male). Particulars: mouse, 30 mg/kg p.o., mean ± standard error, n = 6. Here is the method: Measurement of Antiinflammatory Activity by the Carrageenin-Induced Hind Paw Edema
Std:ddY Strain male mice (20-25 g) were fasted for one day before the experiment, and were used. After test compounds shown in Table 1 was formed to a salt with tartaric acid, this salt was dissolved in sterilized and distilled water at the rate of 30 mg/10 ml to give the test compound solution. As a control, sterilized and distilled water was used. One hour after the oral administration of test compound solutions, 25 μl of λ-carrageenin suspended in 0.9% physiological saline solution (0.5 mg/25 μl) was injected s.c. under the plantar surface of the right hind paw of a mouse and 25 μl of 0.9% physiological saline solution was injected s.c. under the plantar surface of the left hind paw of the same mouse. Three hours and five hours after carrageenin injection, the […] of the paw was measured with a dial gauge calliper. To the control group, One hour after the oral administration of sterilized and distilled water at the rate of 10 ml/kg, 25 μl of λ-carrageenin (0.5 mg/25 μl) suspended in 0.9% physiological saline solution was injected s.c. under the plantar surface of the right hind paw of a mouse and 25 μl of 0.9% physiological saline solution was injected s.c. under the plantar surface of the left hind paw of the same mouse and the later operation was done in the same manner as in the test compound dosing group mentioned above. The results were described as a swelling rate (%) obtained from the following equation.
Swelling rate (%)=(R-L)×100/L
R: the thickness of the right hind paw
L: the thickness of the left hind paw
A general note: The carrageenan paw model is a standard test of acute inflammation.

The test system of assay [2] is yeast-induced fever. The experiment in a line: Antipyretic activity on yeast-induced fever in rats. In kind it is in vivo, rats (Wistar, male). The note with it: rat, 2 hours after administration. As to the method:
Measurement of Antipyretic Activity on Yeast-Induced Fever in Rats
Wistar Strain male rats (150-190 g) were fasted for one day before the experiment, and were used. Compounds of number (1) and (2) in Table 1 were formed to the tartaric acid salt and these salts were dissolved in 0.9% physiological saline solution at the rate of 10 mg/10 ml and these solution were used as test compound solution. In a control, 0.9% physiological saline solution was used. After rat rectal temperature was measured, 1 ml/100 g of body weight of 7.5% yeast/0.9% physiological saline solution was injected s.c. at dorsal position. Then, rat rectal temperature was measured at 4 hour after the injection of yeast and rats showing the increase rectal temperature by 1 degree or more were selected and used. Test compound solution was administered s.c. at 5 hours after the injection of yeast. The rectal temperature was measured 2 hours after the administration of test compound solution. The results were described with the difference between the rectal temperature before and after the administration of test compound solution.

The subject of assay [3] is nociceptive response (licking). Briefly: Analgesic activity by the hot-plate method. Type of assay: in vivo, mice (Std:ddY, male). The note with it: mouse, 52° C. plate, solution 10 mg/10 ml, mean ± standard error. As to the method: Measurement of Analgesic Activity by the Hot-Plate Method
Std:ddY Strain male mice (20-25 g) were fasted for one day before the experiment, and were used. After compounds shown in Table 1 were formed to the tartaric acid salts, these compounds were dissolved in 0.9% physiologocal saline solution at the rate of 10 mg/10 ml, respectively and these solution were used as test compound solution. In a control, 0.9% physiological saline solution was used. Mice were placed on a cyrindric hot plate (diameter: 22 cm, height: 11 cm) made of copper which was fixed in a water bath adjusted to 52° C. so that each animal's four paws came into contact with the plate and the time taken to show the nociceptive response (licking) as an index of pain was measured. Mice showing response latency above 25 seconds were excluded from the experiment. To prevent a burn damage of mouse tissue by heating, cutoff time of 50 seconds was defined. The results were described as an inhibition rate (%) obtained from the following equation.
Inhibition rate (%)=(A-B)×100/(50-B)
A: Response latency (seconds) after the administration of test compound solution
B: Response latency (seconds) before the administration of test compound solution

The subject of assay [4] is pain threshold (tail-pressure). The experiment in a line: Tail-pressure method, experiment combined with morphine antagonist (levallorphan). Type of assay: in vivo, mice (Std:ddY, male). The note with it: 10 mg/kg i.v., mean ± standard error. Here is the method: (4) Experiment Combined with Morphine Antagonist
Std:ddY Strain male mice (20-25 g) were fasted for one day before the experiment, and were used. In this experiment, the tartaric acid salt of a compound of number (2) in Table 1, morphine hydrochloride and levallorphan hydrochloride of an opioid antagonist were used. The tartaric acid salt of a compound of number (2) was dissolved in 0.9% physiological saline solution at the rate of 10 mg/2 ml. Morphine hydrochloride was dissolved in 0.9% physiological saline solution at the rate of 10 mg/2 ml. Levallorphan hydrochloride was dissolved in 0.9% physiological saline solution at the rate of 1 mg/10 ml. As a control, 0.9% physiological saline solution was used. A tail-pressure apparatus was used in this experiments. Before the administration of levallorphan hydrochloride, the pain threshold was measured twice at intervals of 30 minutes and those mice indicating a pain threshold of 50 to 100 mmHg were selected and used. Levallorphan hydrochloride solution mentioned above was administered s.c. at the rate of 10 ml/kg and, 30 minutes later, the above tartaric acid salt solution compound of number (2) or morphine hydrochloride solution was injected i.v. at the rate of 2 ml/kg, respectively. Each pain threshold was measured 10, 20 and 30 minutes after an intravenous injection. In control group, 0.9% physiological saline solution was injected i.v. at the rate of 2 ml/kg at 30 minutes after s.c. administration at 10 ml/kg of 0.9% physiological saline solution. In the single administration group of levallorphan hydrochloride, levallorphan hydrochloride solution mentioned above was administered s.c. at the rate of 10 ml/kg and, 30 minutes later, 0.9% physiological saline solution was injected i.v. at the rate of 2 ml/kg. The results were described in Table 10 as an inhibition rate (%) indicating in the preceding paragraph (1).

For the compound `CCN1CC2(COC)C(O)CC(OC)C34C5CC6(O)C(OC)C(OC(C)=O)C(O)(C5C6OC(=O)c5ccc(Cl)cc5)C(C(OC)C23)C14` (stereo not drawn) [(2), 15-O-acetyl-14-O-p-chlorobenzoylaconine], the results for the Swelling rate in assay [1] (3 hour) and in assay [1] (5 hour) were 40 ± 9% and 46 ± 9%, respectively. The “Change of rectal temperature” value in assay [2] (1 mg/kg s.c.) stood at 1.5 ± 0.2 °C; in assay [2] (3 mg/kg s.c.), 0.5 ± 0.2 °C; in assay [2] (10 mg/kg s.c.), 0.3 ± 0.1 °C. Moreover, the “Inhibition rate (hot-plate method)” value in assay [3] is given as 76 ± 11%. For the same compound, the Inhibition rate worked out at 86 ± 25% in assay [4] (with levallorphan 1 mg/kg s.c. 30 minutes before, 10 min); 77 ± 14% in assay [4] (with levallorphan 1 mg/kg s.c. 30 minutes before, 20 min); 67 ± 22% in assay [4] (with levallorphan 1 mg/kg s.c. 30 minutes before, 30 min); 85 ± 15% in assay [4] (without levallorphan, 10 min); 80 ± 20% in assay [4] (without levallorphan, 20 min); 65 ± 21% in assay [4] (without levallorphan, 30 min).

The record behind these values is patent publication US5770604A, “Aconitine compound and an antipyretic/analgesic/anti-inflammatory agent” (priority 1994, dated 1998).
